Reference: paper PMC12693416, “From Lipid Regulation to Neuroprotection: Multitarget (Benzo)thiazine Derivatives as Promising Leads” (Molecules, 2025)
pIC50: −log10 of the molar value. Read-outs that look alike come from different tables or passages of the source.

Tests used:
[1] = system: mouse liver microsomal lipid peroxidation; assay: Inhibition of mouse liver microsomal lipid peroxidation (LP); conditions: for LP % Inhibition at 100 μΜ: 100 μM compound; for pIC50: read-out: LP IC50 Value, 45 min incubation
[2] = Iron chelation (ferrozine assay); conditions: for % of Fe(II) Chelation (at 100 μM): 100 μM compound, Fe2+ 20 μM
Experimental: […] The reaction was initiated with the addition of a 100 μM aqueous ferrozine solution, which chelates iron ions, resulting in an increased maximum absorbance at 562 nm. After incubation at 37 °C for 10 min, the mixture’s absorbance is measured at 562/700 nm. Each value is expressed as the mean of 3 tests per sample [46].

[3] = Radical scavenging of DPPH; conditions: DPPH 200 μM, 30 min incubation
Experimental: Compounds, dissolved in absolute methanol, at concentrations of 25–400 μM, were added to an equal volume of a methanolic solution of DPPH (final concentration 200 μM) at room temperature (22 ± 2 °C).

[4] = system: hyperlipidaemic mice; assay: Tyloxapol (Triton WR 1339)-induced hyperlipidemia, plasma lipid parameters; format: in vivo; conditions: i.p. 84 μmol/kg; for change in vivo at 84 µmol/kg / inhibition in vivo at 84 µmol/kg: Mus musculus, ip, 24 h
Experimental: An aqueous solution of Triton WR 1339 was given i.p. to mice (400 mg/kg of body weight) and one hour later the test compounds (84 μmol/kg of body weight), dissolved in saline or saline only, were administered i.p. After 24 h, blood was taken from the aorta/heart and used for the determination of plasma total cholesterol (TC), triglyceride (TG) levels, and high-density lipoprotein (HDL) levels, using commercially available kits (Biosis Cholesterol Enzymatic/PAP, Biosis Triglycerides GPO/PAP, and Biosis HDL Phosphovolframic, Biosis, Athens Greece). Levels of plasma lipids were determined in duplicate while values presented are the mean from 8 animals (per compound). The levels of low-density lipoprotein (LDL) are calculated according to the equation: LDL (mg/dL) = 3/4 * (TC-HDL).

[5] = system: carrageenan-induced mouse paw edema; assay: Carrageenan-induced mouse paw edema; format: in vivo, C57BL/6 mice; conditions: ip, 3.5 h, i.p. 0.30 mmol/kg, female C57BL/6, 3.5 h after carrageenan, read-out: % Edema (decrease of carrageenan-induced paw edema vs control)
Experimental: For the in vivo anti-inflammatory activity, C57BL/6 mice were injected with 0.025 mL carrageenan (2% w/v solution in saline) i.d. into the right hind paw, the left paw serving as control. The test compounds dissolved in saline (300 μmol/kg) were given i.p. right after the carrageenan injection, and 3.5 h later the produced edema was estimated as paw weight increase. Results are expressed as percentage of reduction in paw-edema and are the mean of 6 animals (per compound).

[6] = target: soybean lipoxygenase (LOX-3); assay: Soybean lipoxygenase (LOX-3) inhibition; format: biochemical; conditions: after 5 min of incubation; sodium linoleate 100 μM, pH 9.0
Experimental: Lipoxygenase (LOX) inhibitory activity was determined using soybean lipoxygenase (250 U/mL) and sodium linoleate (100 μM) as substrate, in Tris–HCl buffer pH 9.0.

[7] = target: T1, acetylcholinesterase from eel (Electrophorus electricus, UniProt O42275); assay: Acetylcholinesterase (AChE) inhibition (Ellman); format: biochemical; conditions: read-out: AChE Inhibition (%), 300 μM compound
T1 construct: purchased Sigma
T1 sequence (O42275 24-633): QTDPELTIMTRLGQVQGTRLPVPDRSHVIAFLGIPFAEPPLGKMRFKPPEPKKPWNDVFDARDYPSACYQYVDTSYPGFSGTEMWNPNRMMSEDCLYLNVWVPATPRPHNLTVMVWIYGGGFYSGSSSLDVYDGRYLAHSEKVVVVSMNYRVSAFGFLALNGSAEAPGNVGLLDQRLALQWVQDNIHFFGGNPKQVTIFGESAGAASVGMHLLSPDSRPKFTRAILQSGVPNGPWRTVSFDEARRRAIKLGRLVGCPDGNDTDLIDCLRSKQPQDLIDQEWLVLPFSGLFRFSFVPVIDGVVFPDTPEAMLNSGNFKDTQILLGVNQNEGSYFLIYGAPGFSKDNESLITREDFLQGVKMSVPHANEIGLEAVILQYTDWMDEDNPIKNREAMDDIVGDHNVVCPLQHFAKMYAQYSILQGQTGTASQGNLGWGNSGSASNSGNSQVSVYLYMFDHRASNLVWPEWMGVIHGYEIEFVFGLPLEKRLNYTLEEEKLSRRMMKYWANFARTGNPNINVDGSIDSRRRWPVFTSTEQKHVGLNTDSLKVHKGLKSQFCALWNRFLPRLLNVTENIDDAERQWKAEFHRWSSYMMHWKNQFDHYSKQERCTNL
Experimental: (0.31 mM) in phosphate buffer with pH = 7. The incubation mixture is monitored for 7 min at 37 °C.

[8] = system: plasma of hyperlipidaemic mice; assay: Total antioxidant capacity (TAC) of plasma in hyperlipidaemic mice; format: in vivo; conditions: Mus musculus, ip, 24 h, i.p. 84 μmol/kg, read-out: Total Antioxidant Capacity (TAC) Increase (%)
[9] = plasma, vs tyloxapol control, read-out: % HDL Increase
[10] = LDL calculated as 3/4*(TC-HDL), read-out: % LDL Decrease
[11] = plasma, vs tyloxapol control, read-out: % Total Cholesterol (TC) Reduction
[12] = plasma, vs tyloxapol control, read-out: % Triglycerides (TG) Reduction
[13] = ratio calculated, read-out: % HDL/LDL Increase (antiatherogenic index)

Structure (SMILES)	LP % Inhibition at 100 μΜ [1]	% of Fe(II) Chelation (at 100 μM) [2]	pIC50 [3]	pIC50 [1]	change in vivo at 84 µmol/kg [4, 9]	inhibition in vivo at 84 µmol/kg [4, 10]	inhibition in vivo at 84 µmol/kg [4, 11]	inhibition in vivo at 84 µmol/kg [4, 12]	inhibition in vivo at 300 µmol/kg [5]	IC50 [6]	inhibition at 300 µM [7]	change in vivo at 84 µmol/kg [8]	change in vivo at 84 µmol/kg [4, 13]	% of Fe(II) Chelation at 10 μM ([2]; 10 μM compound)	% HDL, value marked footnote 2: decrease percentage ([4]; plasma, HDL decrease, not increase)	% Triglycerides (TG), value marked footnote 1: increase percentage ([4]; plasma, TG increase, not reduction)
Cc1cc(C(C)(C)C)c(O)c(C(C)(C)C)c1 [BHT, butylated hydroxytoluene, reference compound]	0%	0%	4.51													
COc1cc(/C=C/C(=O)N2CCSC(c3ccc(-c4ccccc4)cc3)C2)ccc1O (centres unmarked) [Compound 1, (E)-1-(2-([1,1′-Biphenyl]-4-yl)thiomorpholino)-3-(4-hydroxy-3-methoxyphenyl)prop-2-en-1-one]		19%	3.78	5.22	84%	59%	40%	83%	≤ 60%	68 µM	22%					
COc1ccc(/C=C/C(=O)N2CCSC(c3ccc(-c4ccccc4)cc3)C2)cc1OC (centres unmarked) [Compound 2, (E)-1-(2-([1,1′-Biphenyl]-4-yl)thiomorpholino)-3-(3,4-dimethoxyphenyl)prop-2-en-1-one]		18%	< 3.40	< 3.00	44%	53%	30%	60%	≤ 60%	> 300 µM	26%	43%	122%			
O=C(c1cc(O)c(O)c(O)c1)N1CCSC(c2ccc(-c3ccccc3)cc2)C1 (centres unmarked) [Compound 3, (2-([1,1′-Biphenyl]-4-yl)thiomorpholino)(3,4,5-trihydroxyphenyl)methanone]		89%	4.51	5.10	49%	79%	51%	86%	≤ 60%	4 µM	10%			56%		
COc1cc(C(=O)N2CCSC(c3ccc(-c4ccccc4)cc3)C2)cc(OC)c1OC (centres unmarked) [Compound 4]		4%	< 3.40	< 3.30	95%	5%	10%	35%	44%	71 µM	30%	87%				
CC(C)(C)c1cc(C(=O)N2CCSC(c3ccc(-c4ccccc4)cc3)C2)cc(C(C)(C)C)c1O (centres unmarked) [Compound 5, (2-([1,1′-Biphenyl]-4-yl)thiomorpholino)(3,5-ditertbutyl-4-hydroxyphenyl)methanone]		0%	3.52	3.60			55%	50%	35%	150 µM	24%	0%				
CC(C)(C)c1cc(/C=C/C(=O)N2CCSC(c3ccc(-c4ccccc4)cc3)C2)cc(C(C)(C)C)c1O (centres unmarked) [Compound 6, (E)-1-(2-([1.1′-Biphenyl]-4-yl)thiomorpholino)-3-(3,5-ditertbutyl-4-hydroxyphenyl)prop-2-en-1-one]		0%	3.54	< 3.30		49%	36%	65%	33%	252 µM	~45%		43%		23 **^,2%	
CC(C)Cc1ccc(C(C)C(=O)N2CCSC(c3ccc(-c4ccccc4)cc3)C2)cc1 (centres unmarked) [Compound 7, 1-(2-([1,1′-Biphenyl]-4-yl)thiomorpholino)-2-(4-isobutylphenyl)propan-1-one]		3%	< 3.40	3.52			27%	70%	27%	22 µM	27%	0%				
O=C(/C=C/c1ccccc1)N1CCSC(c2ccc(-c3ccccc3)cc2)C1 (centres unmarked) [Compound 8, (E)-1-(2-([1,1′-Biphenyl]-4-yl)thiomorpholino)-3-phenylprop-2-en-1-one]		5%	< 3.40	< 3.00	9%	57%	45%	53%	46%	> 200 µM	19%	104%	91%			
O=C(c1cccnc1)N1CCSC(c2ccc(-c3ccccc3)cc2)C1 (centres unmarked) [Compound 9]		2%	< 3.40	< 3.00		44%	35%		34%	192 µM	33%	60%	105%			33 *^,1%
Cc1c(C)c2c(c(C)c1O)CCC(C)(C(=O)N1CCSC(c3ccc(-c4ccccc4)cc3)C1)O2 (centres unmarked) [Compound 10]		0%	4.11	5.40	32%	23%	13%	52%	43%	140 µM	~45%		77%			
CC(C)(C)c1cc(/C=C/C(=O)N2CC(c3ccc(-c4ccccc4)cc3)Sc3ccccc32)cc(C(C)(C)C)c1O (centres unmarked) [Compound 16, (E)-1-(2-([1,1′-Biphenyl]-4-yl)-2,3-dihydro-4H-benzo[b][1,4]thiazin-4-yl)-3-(3,5-ditertbutyl-4-hydroxyphenyl)prop-2-en-1-one]		9%	3.85	< 3.00	131%	66%	45%	67%	45%	58 µM	24%					
Cc1c(C)c2c(c(C)c1O)CCC(C)(C(=O)O)O2 (centres unmarked) [Trolox, 6-hydroxy-2,5,7,8-tetramethylchroman-2-carboxylic acid, reference compound]	43%	29%	4.48													
CC(C)(C)c1cc(/C=C/C(=O)O)cc(C(C)(C)C)c1O [acrylic derivative, (E)-3-(3,5-ditertbutyl-4-hydroxyphenyl)acrylic acid, reference compound]			4.11													
O=C1O[C@H]([C@@H](O)CO)C(O)=C1O [ascorbic acid, reference compound]			4.38													
O=C(O)/C=C/c1ccccc1 [cinnamic acid, reference compound]										> 300 µM						
O=C(O)c1cc(O)c(O)c(O)c1 [gallic acid, reference compound]	73%	98%	4.85													
CC(C)Cc1ccc(C(C)C(=O)O)cc1 (centres unmarked) [ibuprofen, reference compound]										> 300 µM						
COc1ccc2cc([C@H](C)C(=O)O)ccc2c1 [naproxen, reference compound]										25 µM						
